In patent US12516293B2, “Reagents and methods with Wnt agonists and bioactive lipids for generating and expanding cardiomyocytes” (The Board of Trustees of the Leland Stanford Junior …, priority 2018, dated 2026):

What was measured:
Format in all cases: cell-based, human
[1] = tested on: hiPSC-CMs; test: ki67/pHH3 proliferation and binucleation of hiPSC-CMs (immunofluorescence)
Method: Immunohistochemistry was performed with the incubation of primary antibodies overnight followed by 2 hours of incubation with various Alexa fluorescence conjugated secondary antibodies. Images were made with confocal (Zeiss LSM 710) or regular immunofluorescence microscopy (Leica DM IL LED). Primaries used in this study were cardiac troponin T (MS-295, Fisher), Ki67 (ab15580, Abcam), pHH3 (#9701, Cell Signaling), aurora B (ab2254, Abcam), alpha sarcomeric actinin ([…], Sigma-Aldrich), MLC2V (ab48003, Abcam), phospo AKT […] (#9275, Cell Signaling). […] To examine this, the percentage was determined of troponin T (TnT) positive hiPSC-CMs that express the cell cycle marker ki67 or the mitosis marker phospho-histone H3 (pHH3) at each passage after treatment with CHIR or DMSO (CTR) (FIG. 2A-C). […] The short-term (24 hrs) changes were assessed in proliferation rate of day 12 hiPSC-CMs (P0) after treatment with CHIR-, CTR-, or C59, a specific inhibitor of Wnt signaling (FIG. 2I-J).

[2] = tested on: hiPSCs; test: hiPSC morphology, cell number and marker expression; conditions: 48-hour treatment of hiPSCs, immunostaining and qPCR
Source text: The changes in gene expression was validated after treatment with bioactive lipids or CHIR from the microarray studies with immunostaining and quantitative PCR analysis (FIG. 17D-E).

[3] = tested on: TCF/LEF; test: TOPFlash TCF/LEF luciferase reporter in day 30 hiPSC-CMs; conditions: day 30 cardiomyocytes, 2-hour treatment
Method: […] and day 30 hiPSC-CMs were replated in 96-well plates and cultured for 2-3 days before transfection with Lipofectamine (Invitrogen) and TOPFlash (TCF/LEF) luciferase Wnt signaling reporter plasmid (M50, Addgene) at 100 ng/well. After 48 hours, media was changed, and cells were subjected to different treatments for 2 hours before lysis and luciferase (Promega) luminescence was measured with a standard luminescence plate reader. To determine the mechanism through which S1P/LPA regulate cell cycle activity in hiPSC-CMs, it was evaluated whether S1P and LPA treatment can directly stimulate Wnt/β-catenin signaling in day 30 cardiomyocytes using the TOPFlash (TCF/LEF-luciferase) reporter.

SMILES: Cc1c[nH]c(-c2cnc(NCCNc3ccc(C#N)cn3)nc2-c2ccc(Cl)cc2Cl)n1 [CHIR99021]
- extension of window of proliferation (ki67, pHH3) ([1]; CHIR vs CTR at each passage): up to 5 passages
- binucleation ([1]; compared with CTR or C59 treated cells): less binucleation
- ki67 expression / proliferation rate ([1]; day 12 hiPSC-CMs (P0), 24 hrs treatment): significant difference in ki67 expression
- Brachyury T (Bry T) expression [2]: increase both VIM and Brachyury T (Bry T) expression
- VIM expression [2]: increase both VIM and Brachyury T (Bry T) expression
- TCF/LEF-luciferase activity (TOPFlash) [3]: activated
